Test system: RHE-MEL 3D in vitro Caucasian skin model
Assay: Skin pigmentation (ITA°) on melanized reconstructed human epidermis 3D model RHE-MEL
Type: cell-based
Settings: 14 days study, treated daily for 10 days; Skin Care Composition at 1%, niacinamide at same use level; versus untreated
Protocol: The protocol for this study including the following. A melanized reconstructed human epidermis 3D Model (RHE-MEL) (in vitro Caucasian skin model) was used. The study duration was for 14 days. The RHE-MEL 3D in vitro skin tissues were allowed to grow in the first 4 days. The 3D skin tissues were treated every day with the materials for 10 days. The following samples were used: Untreated sample, Benchmark Niacinamide (at same use level as in Skin Care Composition), and Skin Care Composition used at 1%. Concentrations of materials were predetermined based on screening MTT assay. A C-Cube Dermoscope® (a high quality magnifying lens and a powerful lighting system used to evaluate pigmented skin lesions, and can diagnose melanoma), was used coupled with C-Cube clinical software for image analysis. Skin pigmentation was analyzed via high resolution pictures obtained from the C-Cube Dermoscope® coupled with an image analysis software. ITA° parameter was measured as degree of pigmentation of the skin directly on in vitro 3D RHE-MEL skin model. Statistical analysis was done using the Student T-test with a confidence level of (p<0.05).
In this 3D RHE-MEL in vitro Caucasian model skin measured was the intensity of the skin pigmentation degree by ITA° parameter (individual typological angle). […]

`NC(=O)c1cccnc1` [Niacinamide] was tested, and the “ITA° (individual typology angle), degree of skin pigmentation” value was “increased the ITA°”.
